This is an account of results in patent publication US4288449A, “N-Arylsulfonylpyrroles, their preparation, and therapeutic agents containing these compounds” (BASF Aktiengesellschaft, priority 1978, dated 1981).

Where only a bound is given, the exact number is not on record here.

One series can be described thus: in vivo. Conditions: mouse, po. The protocol:
To determine the acute toxicity, the substances are administered orally to groups of 10 female mice of the NMRI strain, weighing from 20 to 23 g. The mean lethal dose (LD 50) is determined after a period of observation of 72 hours.

Series [1] can be described thus: Diuretic action after oral administration (excretion of electrolyte and of water). It counts as in vivo, dog (male beagles). Conditions: for Excretion of electrolyte: Na^+ / Na^+/K^+ quotient / Excretion of water: H2 O / Excretion of electrolyte: K^+ / Excretion of electrolyte: Cl^- / times more active than Furosemid / Na^+ excretion between the 2nd and 6th hours after administration: dog, oral; for Excretion of electrolyte: Na^+: dose mg/kg: 9 0.464, 15 0.215, 114 0.1, 116 0.1, 120 0.215, Furosemid 1.0; for Na^+/K^+ quotient: control 1.0; for times more active than Furosemid: by doses giving Na^+ and H2 O excretion similar to Furosemid; for Na^+ excretion between the 2nd and 6th hours after administration / diuretic action: in words. The protocol: The diuretic action was determined on male beagles weighing from 10 to 15 kg.
The animals are kept without food for 18 hours before starting the experiment. 2 hours before administration of the test substance, they are given 20 ml/kg of water orally. The test substances are administered orally as a tragacanth suspension. Thereafter, 4 ml/kg of water are administered 6 times at intervals of 1 hour.
Urine samples are taken by catheterization at intervals of 2 hours, over a period of 6 hours. […]

The mark [2] stands for this setting: 2 hours, doses as E1, control 9,3.
The mark [3] stands for this setting: 2 hours, doses as E1, control 67.
Setting [4] is: 2 hours, doses as E1, control 81.
Setting [5] is: 6 hours, doses as E6, control 27.
Setting [6] is: 6 hours, doses as E6, control 184.
Setting [7] is: 6 hours, doses as E6, control 238.

In the series “in vivo”, `CCc1ccc(CC)n1S(=O)(=O)c1cc(C(=O)O)cc(NCc2ccsc2)c1Oc1ccccc1` [Example 114] yielded an LD50 at 72 h greater than 2150 mg/kg. Also, the selectivity ratio in the series “in vivo” is greater than 21500. The Excretion of electrolyte: Na^+ in series [1] (2 hours, control 66) was 1410 µval/kg; in series [1] (6 hours, control 212), 1,640 μval/kg. The “Na^+/K^+ quotient” value in series [1] (2 hours, doses as E1) came to 4.8. Also, the entries for the “Excretion of water: H2 O” value in series [1] (setting [2]) and in series [1] (setting [5]) were 26 mL/kg and 42 mL/kg, respectively. Besides, the “Excretion of electrolyte: K^+” value in series [1] (setting [3]) is on record as 295 μval/kg; in series [1] (setting [6]), 442 μval/kg. For the same compound, the entries for the “Excretion of electrolyte: Cl^-” value in series [1] (setting [4]) and in series [1] (setting [7]) were 1,780 μval/kg and 2,080 μval/kg, respectively. Also, the “times more active than Furosemid” value in series [1] is 10 times.
`Cc1ccc(C)n1S(=O)(=O)c1cc(C(=O)O)cc(NCc2ccsc2)c1Nc1ccccc1` [Example 120] returned an LD50 at 72 h in the series “in vivo” greater than 2150 mg/kg. Besides, the selectivity ratio in the series “in vivo” was greater than 10000. Besides, the Excretion of electrolyte: Na^+ in series [1] (2 hours, control 66) was 1260 µval/kg; in series [1] (6 hours, control 212), 2,050 μval/kg. Further, the “Na^+/K^+ quotient” value in series [1] (2 hours, doses as E1) is recorded as 5.6. For the same compound, the “Excretion of water: H2 O” value in series [1] (setting [2]) stood at 19 mL/kg; in series [1] (setting [5]), 41 mL/kg. Besides, the “Excretion of electrolyte: K^+” value was determined as 227 μval/kg in series [1] (setting [3]) and 527 μval/kg in series [1] (setting [6]). Further, the “Excretion of electrolyte: Cl^-” value in series [1] (setting [4]) is 1,600 μval/kg; in series [1] (setting [7]) it was 2,760 μval/kg.
`O=C(O)c1cc(NCc2ccccc2)c(Oc2ccccc2)c(S(=O)(=O)n2cccc2)c1` [Example 9] yielded an LD50 at 72 h in “in vivo” of 957 mg/kg. In addition, the selectivity ratio in “in vivo” came out at 2060. Besides, the “Excretion of electrolyte: Na^+” value in series [1] (2 hours, control 66) is 1,520 μval/kg; in series [1] (6 hours, control 212), 2930 µval/kg. The “Na^+/K^+ quotient” value in series [1] (2 hours, doses as E1) is reported as 5.1. Also, the figures for the “Excretion of water: H2 O” value in series [1] (setting [2]) and in series [1] (setting [5]) were 27 mL/kg and 56 mL/kg, respectively. Also, the “Excretion of electrolyte: K^+” value in series [1] (setting [3]) came out at 298 μval/kg; in series [1] (setting [6]) it was 810 μval/kg. Moreover, the “Excretion of electrolyte: Cl^-” value in series [1] (setting [4]) is 1,940 μval/kg; in series [1] (setting [7]) it was 4,200 μval/kg. Further, in series [1], the “times more active than Furosemid” value stood at 2.2 times. The “Na^+ excretion between the 2nd and 6th hours after administration” value in series [1] is recorded as “a distinct further increase in excretion”. Besides, the diuretic action result in series [1] is “not only better action, but also longer-lasting action, than Furosemid”.
On to `CCc1ccc(C)n1S(=O)(=O)c1cc(C(=O)O)cc(NCc2ccsc2)c1Oc1ccccc1` [Example 116], for which the LD50 at 72 h in the series “in vivo” was greater than 2150 mg/kg. Besides, the selectivity ratio in “in vivo” was greater than 21500. Besides, the “Excretion of electrolyte: Na^+” value is 1,150 μval/kg in series [1] (2 hours, control 66) and 1,560 μval/kg in series [1] (6 hours, control 212). The “Na^+/K^+ quotient” value in series [1] (2 hours, doses as E1) was 4.2. Further, the “Excretion of water: H2 O” value in series [1] (setting [2]) worked out at 22 mL/kg; in series [1] (setting [5]), 40 mL/kg. The results for the “Excretion of electrolyte: K^+” value in series [1] (setting [3]) and in series [1] (setting [6]) were 271 μval/kg and 473 μval/kg, respectively. Also, the “Excretion of electrolyte: Cl^-” value in series [1] (setting [4]) is reported as 1,510 μval/kg; in series [1] (setting [7]) it was 2,100 μval/kg. The “times more active than Furosemid” value in series [1] is reported as 10 times.
`NS(=O)(=O)c1cc(C(=O)O)c(NCc2ccco2)cc1Cl` [Furosemid, 4-chloro-N-(2-furylmethyl)-5-sulfamylanthranilic acid, reference compound]: the “Na^+/K^+ quotient” value in series [1] (2 hours, doses as E1) was 3.1.
Regarding `O=C(O)c1cc(NCc2ccsc2)c(Oc2ccccc2)c(S(=O)(=O)n2cccc2)c1` [Example 15], in “in vivo”, the LD50 at 72 h was 1470 mg/kg. Further, in “in vivo”, the selectivity ratio came out at 6840. For the same compound, the “Excretion of electrolyte: Na^+” value in series [1] (2 hours, control 66) was 1,240 μval/kg; in series [1] (6 hours, control 212), 1,940 μval/kg. In addition, the “Na^+/K^+ quotient” value in series [1] (2 hours, doses as E1) turned out to be 3.7. The “Excretion of water: H2 O” value is 23 mL/kg in series [1] (setting [2]) and 45 mL/kg in series [1] (setting [5]). Besides, the results for the “Excretion of electrolyte: K^+” value in series [1] (setting [3]) and in series [1] (setting [6]) were 333 μval/kg and 642 μval/kg, respectively. Also, the “Excretion of electrolyte: Cl^-” value in series [1] (setting [4]) was 1,520 μval/kg; in series [1] (setting [7]) it was 2,440 μval/kg. In addition, in series [1], the “Na^+ excretion between the 2nd and 6th hours after administration” value was “a distinct further increase in excretion”. In series [1], the diuretic action entry was “not only better action, but also longer-lasting action, than Furosemid”.
